The text below walks through data of patent US9561228B2 (Celgene Avilomics Research, Inc., priority 2013, dated 2017).

The target of test [1] is T1, Erk1 (Homo sapiens, UniProt P27361).
T1 construct: purchased Millipore 14-439
Description: Protein Mass Modification Assay (intact protein MALDI, 60 min, 10-fold excess of compound). The class given is binding. The gist of the method: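 Percent covalent modification comes from the intact-protein MALDI centroid mass shift, treated versus control, divided by compound MW. Before analysis, human Erk1 was exposed to compound at 10-fold excess over protein for 60 min at room temperature.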

Test [2] deals with HT-29 cells (colorectal adenocarcinoma). Description: Inhibition of cancer cell proliferation, HT-29 (CellTiterGlo, 72 hours). Type of test: cell-based. The conditions noted are these: Homo sapiens. The gist of the method: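 Proliferation over 72 h at 37° C was read by CellTiterGlo luminescence, translated to cell counts with a cell-density standard curve (390–50,000 cells). Compound added as 3-fold dilutions from a 5,000 nM two-fold stock to 3000 seeded HT-29 cells; GI50 from percent inhibition relative to untreated wells.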

Test [3] has as its system A375 cells (malignant melanoma). Description: Inhibition of cancer cell proliferation, A375 (CellTiterGlo, 72 hours). Type of test: cell-based. The note with it: Homo sapiens, A-375. Here is the method:
Measurement of Inhibition of Cancer Cell Proliferation (A375/Malignant Melanoma)
(§1) The following protocol used an A375 cell line, which cell line is a model for malignant melanoma. A375 cells were split and 3000 cells in 100 n1 of growth medium were added per well of a flat-bottom 96-well plate. A two-fold test compound solution in serum-free DMEM was made, starting at 5,000 nM. Then, 3-fold serial dilutions were made across the plate from well 1 to well 11. Well 12, the last well in a row on the plate, was left as untreated control. 100 μl compound solutions were then transferred to the wells, so the total volume of media was 200 μl per well. Plates were returned to a 37° C. incubator, and the cells were cultured for 72 hours. To measure cell proliferation after 72 hours, media was discarded from the plates, 50 μl/well of fresh medium was added, and 50 μl CellTiterGlo solution was added (Promega Cat#G7573). The plate was covered with a dark lid and incubated for 10 min. A white sealing tape was applied to the bottom of the plate, and the plate was read in a luminescence plate reader. […] 50 μl CellTiterGlo was added per well, and the plate was read in a luminescence plate reader after 10 min. The reading was plotted vs. cell number to generate a standard curve and the equation of the curve fit. The compound-treated sample luminescence readings were converted to cell numbers using the curve-fit equation. The percent of inhibition, using untreated control as 100% growth, was then calculated. GI50 was then calculated by GraphPad Prism.
In general terms: In ATP-based viability assays light output follows the ATP content of the culture.

In test [4] the test system is ERK1/2 phosphorylation of p90RSK in HT29 cells. Description: pRSK MSD Assay in HT29 cells. Type of test: cell-based. The conditions noted are these: Homo sapiens, HT-29, read-out: ERK1/ERK2 PRSK MSD HT29 EC50. The gist of the method: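 Phospho-RSK level, read by electrochemiluminescence on RSK-antibody-coated MSD plates with a phospho-RSK/Sulfo-tag detection pair, reports cellular ERK1/2 activity. HT29 cells, kept overnight in 0.1% FBS medium, were exposed to compound for 120 min at 37° C before lysis.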

The subject of test [5] is HCT116 cells (colorectal carcinoma). Description: Inhibition of cancer cell proliferation, HCT116 (CellTiterGlo, 72 hours). The class given is cell-based. The conditions noted are these: Homo sapiens, HCT-116. The method, then:
Measurement of Inhibition of Cancer Cell Proliferation (HCT116/Colorectal Carcinoma)
as §1, with “a HCT116” for “an A375”, “colorectal carcinoma. HCT116” for “malignant melanoma. A375”, “μl” for “n1”, “RPM1640” for “DMEM”

Test [6] has as its target T2, MEK1 activated ERK1 (Homo sapiens, UniProt P27361).
T2 construct: purchased Millipore (Billerica, Mass.) 14-439-K
Description: Omnia continuous-read kinase assay for potency against MEK1 activated ERK1. Type of test: biochemical. The note with it: MEK1 activated ERK1, ATP at KM; read-out: ERK1 Omnia WT ATP KM IC50. The gist of the method:
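Apparent IC50 came from initial reaction slopes (RFU vs time) plotted against log inhibitor with a variable-slope fit. Reactions were started with ERK1 (4 nM final) added to 50 μM ATP, roughly at its appKM, and 10 μM Sox-conjugated ST17 peptide in 20 mM Tris pH 7.5, 5 mM MgCl2. Fluorescence was monitored every 71 seconds.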

pEC50, pIC50: −log10 of the molar value.

T1 sequence (P27361 whole entry): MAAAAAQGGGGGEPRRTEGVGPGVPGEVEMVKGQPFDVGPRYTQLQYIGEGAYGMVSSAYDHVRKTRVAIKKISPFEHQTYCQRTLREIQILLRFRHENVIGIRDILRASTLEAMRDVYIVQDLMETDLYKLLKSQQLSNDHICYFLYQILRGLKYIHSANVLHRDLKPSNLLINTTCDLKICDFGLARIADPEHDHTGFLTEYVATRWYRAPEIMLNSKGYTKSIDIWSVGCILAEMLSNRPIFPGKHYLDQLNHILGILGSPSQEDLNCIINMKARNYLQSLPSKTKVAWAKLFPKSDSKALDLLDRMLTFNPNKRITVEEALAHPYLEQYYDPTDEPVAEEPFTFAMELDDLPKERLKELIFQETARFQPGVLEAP
T2 sequence (P27361 whole entry): as above

In general, GI50 refers to the concentration giving 50% growth inhibition. Low values mean more potent growth inhibition, high ones less potent growth inhibition. Turning to `C=CC(=O)Nc1ccccc1Nc1nc(N[C@H]2CCC[C@@H](C(N)=O)C2)ncc1C(F)(F)F` [Compound I-118, (1R,3S)-3-((4-((2-acrylamidophenyl)amino)-5-(trifluoromethyl)pyrimidin-2-yl)amino)cyclohexanecarboxamide], the “ERK1 Mass Mod (%)” value in test [1] is on record as “E (a mass modification of ≧70%)”. For the same compound, the 50% growth inhibitory concentration (GI50) in test [2] and in test [3] was 101 to 500 nM in each case. Also, the pEC50 in test [4] is over 7.00.

For `C=CC(=O)Nc1cc(OC)ccc1Nc1nc(Nc2cc(C(N)=O)ccc2C)ncc1Cl` [Compound I-237, 3-((4-((2-acrylamido-4-methoxyphenyl)amino)-5-chloropyrimidin-2-yl)amino)-4-methylbenzamide], the results for the concentration for 50% growth inhibition (GI50) in test [2], in test [3] and in test [5] were under 100 nM, under 100 nM and 501 to 999 nM, respectively. In addition, the pEC50 in test [4] was 6.30 to 7.00.

On to `C=CC(=O)Nc1cc(C)ccc1Nc1nc(Nc2cc(OC)ncc2C)ncc1Cl` [Compound I-241, N-(2-((5-chloro-2-((2-methoxy-5-methylpyridin-4-yl)amino)pyrimidin-4-yl)amino)-5-methylphenyl)acrylamide], for which the values for the 50% growth inhibitory concentration (GI50) in test [2], in test [3] and in test [5] were under 100 nM, 101 to 500 nM and 101 to 500 nM, respectively. For the same compound, the pEC50 in test [4] is over 7.00.

`C=C(F)C(=O)Nc1ccccc1Nc1nc(N[C@H]2CCCN(C(C)=O)C2)ncc1C(F)(F)F` [Compound I-55, (S)—N-(2-((2-((1-Acetylpiperidin-3-yl)amino)-5-(trifluoromethyl)pyrimidin-4-yl)amino)phenyl)-2-fluoroacrylamide]: the figures for the GI50 in test [2], in test [3] and in test [5] were under 100 nM, under 100 nM and 101 to 500 nM, respectively. In addition, the pEC50 in test [4] was 6.30 to 7.00.

In general, pIC50 refers to −log10 of the IC50, conventionally taken in molar units. Take `C=CC(=O)Nc1ccccc1Nc1nc(N[C@H]2CCCN(C(=O)C=O)C2)ncc1C(F)(F)F` [Compound I-52, (S)—N-(2-((2-((1-(2-Oxoacetyl)piperidin-3-yl)amino)-5-(trifluoromethyl)pyrimidin-4-yl)amino)phenyl)acrylamide]: the concentration for 50% growth inhibition (GI50) was 101 to 500 nM in test [2], 101 to 500 nM in test [3] and over 1000 nM in test [5]. For the same compound, in test [6], the pIC50 is 6.30 to 7.00.

With `C=CC(=O)Nc1cc(C)ccc1Nc1nc(N[C@H]2CCCN(C(C)=O)C2)ncc1Cl` [Compound I-139, (S)—N-(2-((2-((1-acetylpiperidin-3-yl)amino)-5-chloropyrimidin-4-yl)amino)-5-methylphenyl)acrylamide], the “ERK1 Mass Mod (%)” value in test [1] was “E (a mass modification of ≧70%)”. Also, the GI50 in test [2], in test [3] and in test [5] was under 100 nM in each case. In test [4], the pEC50 was over 7.00.

For the compound `C=CC(=O)Nc1cc(C)ccc1Nc1nc(N[C@H]2CCCN(C(C)=O)C2)ncc1C(F)(F)F` [Compound I-19, (S)—N-(2-((2-((1-Acetylpiperidin-3-yl)amino)-5-(trifluoromethyl)pyrimidin-4-yl)amino)-5-methylphenyl)acrylamide], the GI50 in test [2], in test [3] and in test [5] was under 100 nM in each case. In test [4], the pEC50 was over 7.00.

For the compound `C=CC(=O)Nc1ccccc1Nc1nc(N[C@H]2CCCN(C(=O)CO)C2)ncc1Cl` [Compound I-123, (S)—N-(2-((5-chloro-2-((1-(2-hydroxyacetyl)piperidin-3-yl)amino)pyrimidin-4-yl)amino)phenyl)acrylamide], the GI50 in test [2], in test [3] and in test [5] was under 100 nM throughout. Further, in test [4], the pEC50 is over 7.00.

Turning to `C=CC(=O)Nc1ccccc1Nc1nc(N[C@H]2CCC[C@@H](C(N)=O)C2)ncc1Cl` [Compound I-120, (1R,3S)-3-((4-((2-acrylamidophenyl)amino)-5-chloropyrimidin-2-yl)amino)cyclohexanecarboxamide], in test [1], the “ERK1 Mass Mod (%)” value is “E (a mass modification of ≧70%)”. Further, the results for the GI50 in test [2] and in test [3] were under 100 nM and 101 to 500 nM, respectively. In test [4], the pEC50 is over 7.00.

As for `C=CC(=O)Nc1cc(C)ccc1Nc1nc(N[C@H]2CCCN(C(=O)CO)C2)ncc1C(F)(F)F` [Compound I-20, (S)—N-(2-((2-((1-(2-Hydroxyacetyl)piperidin-3-yl)amino)-5-(trifluoromethyl)pyrimidin-4-yl)amino)-5-methylphenyl)acrylamide], the GI50 in test [2], in test [3] and in test [5] was under 100 nM each time. The pEC50 in test [4] was over 7.00.

For `C=CC(=O)Nc1cc(Cl)ccc1Nc1nc(Nc2cc(OC)ncc2C)ncc1Cl` [Compound I-248, N-(5-chloro-2-((5-chloro-2-((2-methoxy-5-methylpyridin-4-yl)amino)pyrimidin-4-yl)amino)phenyl)acrylamide], the GI50 in test [2] was 501 to 999 nM; in test [3], 501 to 999 nM; in test [5], over 1000 nM.

For `C=CC(=O)Nc1cc(C)ccc1Nc1nc(N[C@H]2CCCN(C(=O)CF)C2)ncc1C(F)(F)F` [Compound I-43, (S)—N-(2-((2-((1-(2-Fluoroacetyl)piperidin-3-yl)amino)-5-(trifluoromethyl)pyrimidin-4-yl)amino)-5-methylphenyl)acrylamide], the “ERK1 Mass Mod (%)” value in test [1] is given as “E (a mass modification of ≧70%)”. The GI50 in test [3] is under 100 nM.

For `CCC(=O)Nc1ccccc1Nc1nc(N[C@H]2CCCN(C(=O)CO)C2)ncc1Cl` [Compound I-311, (S)—N-(2-((5-chloro-2-((1-(2-hydroxyacetyl)piperidin-3-yl)amino)pyrimidin-4-yl)amino)phenyl)propionamide], the figures for the GI50 in test [2], in test [3] and in test [5] were 501 to 999 nM, over 1000 nM and over 1000 nM, respectively. Also, the pEC50 in test [4] was 6.00 to 6.30.

Turning to `C=CC(=O)Nc1ccccc1Nc1nc(N[C@H]2CCCN(C(C)=O)C2)ncc1C(F)(F)F` [Compound I-10, (S)—N-(2-(2-(1-acetylpiperidin-3-ylamino)-5-(trifluoromethyl)pyrimidin-4-ylamino)phenyl)acrylamide], the GI50 in test [2], in test [3] and in test [5] was under 100 nM each time. Further, in test [4], the pEC50 was over 7.00.

On to `C=CC(=O)Nc1ccccc1Nc1nc(Nc2cncc(OC)c2)ncc1C(F)(F)F` [Compound I-86, N-(2-((2-((5-Methoxypyridin-3-yl)amino)-5-(trifluoromethyl)pyrimidin-4-yl)amino)phenyl)acrylamide], for which the “ERK1 Mass Mod (%)” value in test [1] is “E (a mass modification of ≧70%)”. Also, the GI50 in test [2], in test [3] and in test [5] was under 100 nM throughout. For the same compound, in test [4], the pEC50 is over 7.00.

As for `C=CC(=O)Nc1ccccc1Nc1nc(Nc2cc(OC)ncc2C)ncc1Cl` [Compound I-240, N-(2-((5-chloro-2-((2-methoxy-5-methylpyridin-4-yl)amino)pyrimidin-4-yl)amino)phenyl)acrylamide], the figures for the GI50 in test [2], in test [3] and in test [5] were under 100 nM, under 100 nM and 101 to 500 nM, respectively. For the same compound, in test [4], the pEC50 is over 7.00.
